Source: ChEMBL document CHEMBL1129100, “Non-peptide glycoprotein IIb/IIIa inhibitors. 9. Centrally constrained alpha-sulfonamides are useful tools for exploring platelet receptor function” (Bioorg Med Chem Lett, 1996)

How the values were obtained:
[1] = species on record: Homo sapiens; assay: Inhibition of human gel filtered platelet aggregation stimulated by ADP ([…]); type: functional, organism-based
[2] = molecular target: Integrin alpha-IIb/beta-3 (Homo sapiens) (UniProt P05106+P08514); assay: Affinity for purified alpha IIb beta-3 integrin; type: protein-complex assay

Row | IC50 [1] [nM] | ED50 [2] [nM] | Structure (SMILES)
1 | 31 | 1.9 | O=C(O)C1=C/C(=N\C(S)=N\CCS(=O)(=O)N[C@@H](CNC(=O)c2ccc3c(c2)C(=O)N(CCC2CCNCC2)C3)C(=O)O)C=CC1=C1c2ccc(O)cc2Oc2cc(O)ccc21
2 | 12 | 2.1 | CN(C)c1cccc2c(S(=O)(=O)N[C@@H](CNC(=O)c3ccc4c(c3)C(=O)N(CCC3CCNCC3)C4)C(=O)O)cccc12
3 | 27 | 12 | O=C(O)CCNC(=O)c1ccc2c(c1)C(=O)N(CCC1CCNCC1)C2
4 | 18 | 0.9 | CCCCS(=O)(=O)N[C@@H](Cc1ccc(OCCCCC2CCNCC2)cc1)C(=O)O [TIROFIBAN]
